In brackets after ≈: the same amount, converted by molar mass. Like-named read-outs stand apart in the source and are kept apart here.
What was measured:
Reo virus-1 = experiment: Test 2: antiviral activity, reo virus-1 in Vero cells; assay type: cell-based; details: Reo virus-1, Vero cells; Table 3
[1] = Test 3: cytotoxicity, HeLa cells; assay type: cell-based; details: human, Table 4, read-out: Minimum cytotoxic concentration (MCC)
Method: (§1) A further test was effected to determine the cytotoxicity of the chemical compounds of Table 1. Cell cultures were incubated with varying concentrations of the esters, during a time period equal to the period required for measuring antiviral activity. The compounds (S)-DHPA and (RS)-DHPA were used for comparative purposes. For each compound, the minimum cytotoxic concentration (MCC) was measured, that is the concentration required to cause a microscopically detectable alteration of normal cell morphology, when incubated with the cells in this way.

[2] = Test 3: cytotoxicity, Vero cells; assay type: cell-based, green monkey; details: monkey, Table 4, read-out: Minimum cytotoxic concentration (MCC)
Method: as §1

[3] = Test 3: cytotoxicity, PRK cells; assay type: cell-based; details: rabbit, Table 4, read-out: Minimum cytotoxic concentration (MCC)
Method: as §1

Measles virus = experiment: microbe, parasite or virus in culture; assay type: cell-based; details: Measles morbillivirus, Vero
Coxsackie virus-B4 = experiment: Test 2: antiviral activity, Coxsackie virus-B4 in HeLa cells; assay type: cell-based; details: Table 3
Parainfluenza-virus-3 = experiment: microbe, parasite or virus in culture; assay type: cell-based; details: Vero
Sindbis virus = experiment: microbe, parasite or virus in culture; assay type: cell-based; details: Vero
Parainfluenza = experiment: microbe, parasite or virus in culture; assay type: cell-based; details: Vero B; read-out: MIC50
Vesicular stomatitis = experiment: microbe, parasite or virus in culture; assay type: cell-based; details: PRK, read-out: MIC50
Reovirus 1 = experiment: Test 1: inhibition of virus cytopathic effect, reovirus 1 in Vero B cells; assay type: cell-based; details: Mammalian orthoreovirus 1; Reovirus 1, Vero B cells; Table 2; read-out: MIC50
Polio 1 = experiment: microbe, parasite or virus in culture; assay type: cell-based; details: HeLa, read-out: MIC50
Herpes simplex 1 (KOS) = experiment: Test 1: inhibition of virus cytopathic effect, herpes simplex 1 (KOS) in PRK cells; assay type: cell-based; details: Table 2, read-out: MIC50
Measles = experiment: microbe, parasite or virus in culture; assay type: cell-based; details: Measles morbillivirus, Vero; read-out: MIC50
Sindbis = experiment: Test 1: inhibition of virus cytopathic effect, Sindbis in Vero B cells; assay type: cell-based; details: Table 2, read-out: MIC50
Method: The antiviral properties of the esters prepared in Example 1 was explored in a variety of cell cultures and with a variety of DNA and RNA viruses such as listed in Table 2. The cells of each cell culture were inoculated with a certain virus in a dose of about 100 CCID50, that is about 100 times the dose needed to infect 50 percent of the cells. One hour after inoculation, the celss were washed with Eagle's nutrient medium and an ester of Example 1 was added in a dose varying from zero to 300 ug/ml and sometimes to more than 400 ug/ml. The compound (S)-DHPA was used in a comparative experiment. […] The cytopathic effect itself was measured in control experiments with virus-infected cell cultures without any added chemical compound and recorded as soon as it reached completion (Method of L. J. Rosenthal and I. L. Schechmaister in "Tissue Culture", p. 510, Academic Press, New York, 1973).
The results are shown in Table 2, wherein the abbreviations have the following meaning: PRK: primary culture of rabbit kidney cells; Vero: continuous line of green monkey kidney cells, HeLa: epithelial line of human cervical carcinoma cells.

Vaccinia = experiment: microbe, parasite or virus in culture; assay type: cell-based; details: Orthopoxvirus vaccinia, PRK, read-out: MIC50
DNA and RNA viruses [4] = details: known DHPA and related derivatives; cited from earlier work
living cells = details: known DHPA; cited from earlier work
[5] = test system: Vesicular stomatitis virus; assay type: cell-based; details: ratio of MCC (PRK cells) to MIC50 (vesicular stomatitis virus)
Solubility = assay type: physicochemical
DNA and RNA viruses [6] = experiment: Antiviral activity against DNA and RNA viruses (general statements); assay type: cell-based

| SMILES | EC50 (Reo virus-1) [µg/mL] | MCC [1] [µg/mL] | MCC [2] [µg/mL] | MCC [3] [µg/mL] | EC50 (Measles virus) [µg/mL] | EC50 (Coxsackie virus-B4) [µg/mL] | EC50 (Parainfluenza-virus-3) [µg/mL] | EC50 (Sindbis virus) [µg/mL] | antiviral index [5] | also measured |
| --- | --- | --- | --- | --- | --- | --- | --- | --- | --- | --- |
| COCCOC(=O)C(O)Cn1cnc2c(N)ncnc21 (racemic) [Compound 10] | 70 (≈ 249 µM) | > 400 | > 400 | > 400 | 400 (≈ 1420 µM) | > 400 | 300 (≈ 1070 µM) | > 400 | – | – |
| CCOC(=O)[C@@H](O)Cn1cnc2c(N)ncnc21 [C2 H5 (S)] | – | – | – | – | – | – | – | – | – | EC50 (Parainfluenza): 100 µg/mL (≈ 398 µM); EC50 (Vesicular stomatitis): 1.5 µg/mL (≈ 5.97 µM); EC50 (Reovirus 1): 70 µg/mL (≈ 279 µM); EC50 (Polio 1): > 400 µg/mL; EC50 (Herpes simplex 1 (KOS)): > 400 µg/mL; EC50 (Measles): 100 µg/mL (≈ 398 µM); EC50 (Sindbis): > 400 µg/mL; EC50 (Vaccinia): 7 µg/mL (≈ 27.9 µM) |
| Nc1ncnc2c1ncn2CC(O)CO (stereo not drawn) [DHPA, 9-(2,3-dihydroxypropyl)adenine] | – | – | – | – | – | – | – | – | – | antiviral activity (in words) (DNA and RNA viruses [4]): broad-spectrum antiviral activity in (S) or (RS) form; acute toxicity for living cells (in words) (living cells): low acute toxicity for living cells |
| CCC(C)OC(=O)C(O)Cn1cnc2c(N)ncnc21 (racemic) [Compound 6] | 70 (≈ 251 µM) | > 400 | > 400 | > 400 | 40 (≈ 143 µM) | > 400 | 200 (≈ 716 µM) | 300 (≈ 1070 µM) | higher than 100 -fold | antiviral index ([5]; listed as 2-butyl): higher than 400 -fold |
| CCCOC(=O)C(O)Cn1cnc2c(N)ncnc21 (racemic) [Compound 3] | 200 (≈ 754 µM) | 400 | 400 | 100 | 100 (≈ 377 µM) | > 400 | 100 (≈ 377 µM) | > 200 | – | – |
| COC(=O)[C@H](O)Cn1cnc2c(N)ncnc21 [CH3 (R), methylester of 3-(adenin-9-yl)-2-hydroxypropanoic acid] | – | – | – | – | – | – | – | – | – | EC50 (Parainfluenza): 200 µg/mL (≈ 843 µM); EC50 (Vesicular stomatitis): 1.5 µg/mL (≈ 6.32 µM); EC50 (Reovirus 1): 70 µg/mL (≈ 295 µM); EC50 (Polio 1): > 400 µg/mL; EC50 (Herpes simplex 1 (KOS)): > 400 µg/mL; EC50 (Measles): 15 µg/mL (≈ 63.2 µM); EC50 (Sindbis): > 400 µg/mL; EC50 (Vaccinia): 15 µg/mL (≈ 63.2 µM) |
| Nc1ncnc2c1ncn2C[C@H](O)CO [(S)--DHPA, 9-(2,3-dihydroxypropyl)adenine, reference compound] | 200 (≈ 956 µM) | > 400 | > 400 | > 400 | 30 (≈ 143 µM) | > 400 | 20 (≈ 95.6 µM) | > 400 | – | EC50 (Vesicular stomatitis): 30 µg/mL (≈ 143 µM); EC50 (Reovirus 1): 70 µg/mL (≈ 335 µM); EC50 (Polio 1): > 400 µg/mL; EC50 (Herpes simplex 1 (KOS)): > 400 µg/mL; EC50 (Measles): 70 µg/mL (≈ 335 µM); EC50 (Sindbis): > 400 µg/mL; EC50 (Vaccinia): 70 µg/mL (≈ 335 µM); antiviral activity (in words) (DNA and RNA viruses [4]): antivirally active |
| CC(C)CCOC(=O)C(O)Cn1cnc2c(N)ncnc21 (racemic) [Compound 8] | 30 (≈ 102 µM) | 400 | 400 | 400 | 12 (≈ 40.9 µM) | > 400 | 200 (≈ 682 µM) | 200 (≈ 682 µM) | higher than 100 -fold | – |
| CCCCCCCCOC(=O)C(O)Cn1cnc2c(N)ncnc21 (racemic) [Compound 9] | 7 (≈ 20.9 µM) | 100 | 200 | 100 | 70 (≈ 209 µM) | > 100 | 15 (≈ 44.7 µM) | 30 (≈ 89.4 µM) | – | – |
| CCCCOC(=O)C(O)Cn1cnc2c(N)ncnc21 (racemic) [Compound 5] | 150 (≈ 537 µM) | 400 | 200 | 200 | 25 (≈ 89.5 µM) | > 400 | 70 (≈ 251 µM) | 150 (≈ 537 µM) | – | – |
| COC(=O)C(O)Cn1cnc2c(N)ncnc21 (racemic) [Compound 1, methylester of 3-(adenin-9-yl)-2-hydroxypropanoic acid] | 200 (≈ 843 µM) | > 400 | > 400 | > 400 | 40 (≈ 169 µM) | > 400 | 20 (≈ 84.3 µM) | > 400 | higher than 100 -fold | EC50 (Parainfluenza): 100 µg/mL (≈ 422 µM); EC50 (Vesicular stomatitis): 3 µg/mL (≈ 12.6 µM); EC50 (Reovirus 1): 300 µg/mL (≈ 1260 µM); EC50 (Polio 1): > 400 µg/mL; EC50 (Herpes simplex 1 (KOS)): > 400 µg/mL; EC50 (Measles): 40 µg/mL (≈ 169 µM); EC50 (Sindbis): > 400 µg/mL; EC50 (Vaccinia): 7 µg/mL (≈ 29.5 µM) |
| Nc1ncnc2c1ncn2C[C@@H](O)CO [DHPA R-enantiomeric form, 9-(2,3-dihydroxypropyl)adenine] | – | – | – | – | – | – | – | – | – | antiviral activity (in words) (DNA and RNA viruses [4]): rather inactive |
| Nc1ncnc2c1ncn2CC(O)C(=O)OC1CCCCC1 (racemic) [Compound 11] | 7 (≈ 22.9 µM) | 100 | 100 | 100 | 15 (≈ 49.1 µM) | > 100 | > 40 | > 100 | – | – |
| CCOC(=O)C(O)Cn1cnc2c(N)ncnc21 (racemic) [Compound 2] | 40 (≈ 159 µM) | > 400 | > 400 | > 400 | 20 (≈ 79.6 µM) | > 400 | 20 (≈ 79.6 µM) | > 400 | higher than 100 -fold | antiviral index ([5]; listed as racemic ethyl): higher than 400 -fold |
| CC(C)COC(=O)C(O)Cn1cnc2c(N)ncnc21 (racemic) [Compound 7] | 150 (≈ 537 µM) | > 400 | > 400 | > 400 | 40 (≈ 143 µM) | > 400 | 20 (≈ 71.6 µM) | > 400 | higher than 100 -fold | antiviral index ([5]; listed as 2-methylpropyl): higher than 400 -fold |
| Nc1ncnc2c1ncn2CC(O)CO (racemic) [(RS)--DHPA, 9-(2,3-dihydroxypropyl)adenine, reference compound] | 100 (≈ 478 µM) | > 400 | > 400 | > 400 | 20 (≈ 95.6 µM) | > 400 | 20 (≈ 95.6 µM) | > 400 | – | antiviral activity (in words) (DNA and RNA viruses [4]): antivirally active |
| Nc1ncnc2c1ncn2CC(O)C(=O)O (stereo not drawn) [3-(adenin-9-yl)-2-hydroxypropanoic acid] | – | – | – | – | – | – | – | – | – | solubility (in words) (Solubility): poorly soluble in water; antiviral activity (in words) (DNA and RNA viruses [6]): inactivity |
| CC(C)OC(=O)C(O)Cn1cnc2c(N)ncnc21 (racemic) [Compound 4] | 40 (≈ 151 µM) | > 400 | > 400 | > 400 | 150 (≈ 565 µM) | > 400 | 70 (≈ 264 µM) | > 400 | higher than 100 -fold | – |
| COC(=O)[C@@H](O)Cn1cnc2c(N)ncnc21 [CH3 (S), methylester of 3-(adenin-9-yl)-2-hydroxypropanoic acid] | – | – | – | – | – | – | – | – | – | EC50 (Parainfluenza): 100 µg/mL (≈ 422 µM); EC50 (Vesicular stomatitis): 7 µg/mL (≈ 29.5 µM); EC50 (Reovirus 1): 300 µg/mL (≈ 1260 µM); EC50 (Polio 1): > 400 µg/mL; EC50 (Herpes simplex 1 (KOS)): > 400 µg/mL; EC50 (Measles): 70 µg/mL (≈ 295 µM); EC50 (Sindbis): > 400 µg/mL; EC50 (Vaccinia): 20 µg/mL (≈ 84.3 µM) |

Source: patent US4605658A (priority 1983, dated 1986)
